According to patent publication US20210386367A1, “DEVICES AND SYSTEMS FOR GASTROINTESTINAL MICROBIOME DETECTION AND MANIPULATION” (Progenity, Inc., priority 2018, published 2021):
Converted amounts (≈) assume the structure as drawn. “And” between values parts separate entries of the source, which are not always exact repeats. Equal entries are not always repeated.

Tests used:
[1] = tested on: Bacteroides spp. spontaneous mutants; experiment: Broth microdilution MIC of spontaneous mutants; type: cell-based
Method in brief: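 Isolates from drug selection plates were subcultured on agar containing drug at the selection concentration and identified by MALDI, then MIC was determined by CLSI broth microdilution (M100-S28) with serial two-fold dilutions. Plates were pre-reduced 1 h in an anaerobic chamber; final inoculum ~1×10^6 CFU/mL.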

[2] = tested on: Streptococcus spp. spontaneous mutants; experiment: organism not typed; type: cell-based
Method in brief: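 Spontaneous mutants from drug selection plates were tested by CLSI broth microdilution in MHB II with two-fold serial drug dilutions. Inoculum was about 5×10^5 CFU/mL, incubated aerobically at 35° C. for 18-20 hr. MIC was the lowest concentration inhibiting visible growth.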

B. fragilis ATCC 25285 = experiment: Broth microdilution MIC (time-kill study); type: cell-based, Bacteroides fragilis
[3] = tested on: Streptococcus agalactiae clinical isolates; experiment: MIC distribution against clinical isolates; type: cell-based; conditions: listed as RFX
Method in brief: (§1)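 MIC is the lowest agent concentration preventing growth, determined by broth or agar dilution with serial compound dilutions and incubation under appropriate conditions (e.g., overnight at 37° C.). MIC90 is the concentration inhibiting ≥90% of isolates in the test population.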

[4] = tested on: Bacteroides fragilis clinical isolates; experiment: MIC distribution against clinical isolates; type: cell-based; conditions: 30 B. fragilis isolates
Method in brief: as §1

B. vulgatus ATCC 8482 = experiment: Time-kill assay; type: cell-based, Bacteroides vulgatus; conditions: 2×, 4×, 8× MIC; 2, 6, 24, 48 hr
[5] = colonies selected at 4× and 8× the MIC

CO[C@H]1/C=C/O[C@@]2(C)Oc3c(C)c(O)c4c(O)c(c5c(nc6cc(C)ccn65)c4c3C2=O)NC(=O)/C(C)=C\C=C\[C@H](C)[C@H](O)[C@@H](C)[C@@H](O)[C@@H](C)[C@H](OC(C)=O)[C@@H]1C [rifaximin]
MIC ([1]; B. fragilis ATCC 25285, selected on rifaximin 4X MIC, Colony A): >64 µg/mL | MIC ([1]; B. fragilis ATCC 25285, selected on rifaximin 4X MIC, Colony B): 64 µg/mL | MIC ([1]; B. fragilis ATCC 25285, selected on rifaximin 8X MIC, Colony A): >64 µg/mL | MIC ([1]; B. fragilis ATCC 25285, selected on rifaximin 8X MIC, Colony B): >64 µg/mL | MIC ([1]; B. fragilis ATCC 25285 Parent): 0.12 µg/mL | MIC ([1]; B. ovatus MMX 3503, selected on rifaximin 4X MIC, Colony A): >64 µg/mL | MIC ([1]; B. ovatus MMX 3503, selected on rifaximin 4X MIC, Colony B): >64 µg/mL | MIC ([1]; B. ovatus MMX 3503, selected on rifaximin 8X MIC, Colony A): >64 µg/mL | MIC ([1]; B. ovatus MMX 3503, selected on rifaximin 8X MIC, Colony B): >64 µg/mL | MIC ([1]; B. ovatus MMX 3503 Parent): 0.25 µg/mL | MIC ([1]; B. vulgatus ATCC 8482, selected on ceftriaxone 4X MIC, Colony A): 0.06 µg/mL | MIC ([1]; B. vulgatus ATCC 8482, selected on ceftriaxone 4X MIC, Colony B): 0.12 µg/mL | MIC ([1]; B. vulgatus ATCC 8482, selected on rifaximin 4X MIC, Colony A): 32 µg/mL | MIC ([1]; B. vulgatus ATCC 8482, selected on rifaximin 4X MIC, Colony B): 64 µg/mL | MIC ([1]; B. vulgatus ATCC 8482, selected on rifaximin 8X MIC, Colony A): >64 µg/mL | MIC ([1]; B. vulgatus ATCC 8482, selected on rifaximin 8X MIC, Colony B): >64 µg/mL | MIC ([1]; B. vulgatus ATCC 8482 Parent (Table 50)): 0.06 µg/mL | MIC ([1]; B. vulgatus ATCC 8482 Parent (Table 54)): 0.06 µg/mL | broth microdilution MIC of selected colonies relative to parent strain [1, 5]: several-fold higher | MIC ([2]; S. agaloctiae ATCC 13813, selected on rifaximin 4X MIC, Colony A): >8 µg/mL | MIC ([2]; S. agaloctiae ATCC 13813, selected on rifaximin 4X MIC, Colony B): >8 µg/mL | MIC ([2]; S. agaloctiae ATCC 13813, selected on rifaximin 8X MIC, Colony A): >8 µg/mL | MIC ([2]; S. agaloctiae ATCC 13813, selected on rifaximin 8X MIC, Colony B): >8 µg/mL | MIC ([2]; S. agaloctiae ATCC 13813 Parent): 0.12 µg/mL (≈ 0.153 µM) | MIC ([2]; S. pneumoniae ATCC 49619, selected on rifaximin 4X MIC, Colony A): >8 µg/mL | MIC ([2]; S. pneumoniae ATCC 49619, selected on rifaximin 4X MIC, Colony B): >8 µg/mL | MIC ([2]; S. pneumoniae ATCC 49619, selected on rifaximin 8X MIC, Colony A): >8 µg/mL | MIC ([2]; S. pneumoniae ATCC 49619, selected on rifaximin 8X MIC, Colony B): >8 µg/mL | MIC ([2]; S. pneumoniae ATCC 49619 Parent): 0.015 µg/mL (≈ 0.0191 µM) | MIC ([2]; S. pyogenes ATCC 49399, selected on rifaximin 4X MIC, Colony A): >8 µg/mL | MIC ([2]; S. pyogenes ATCC 49399, selected on rifaximin 4X MIC, Colony B): >8 µg/mL | MIC ([2]; S. pyogenes ATCC 49399, selected on rifaximin 8X MIC, Colony A): >8 µg/mL | MIC ([2]; S. pyogenes ATCC 49399, selected on rifaximin 8X MIC, Colony B): >8 µg/mL | MIC ([2]; S. pyogenes ATCC 49399 Parent): 0.06 µg/mL (≈ 0.0763 µM) | broth microdilution MIC of selected colonies relative to parent strain [2, 5]: several-fold higher | MIC (B. fragilis ATCC 25285; B. fragilis MMX 123 ATCC 25285): 0.5 µg/mL (≈ 0.636 µM) | MIC (B. fragilis ATCC 25285; broth microdilution): 0.05 µg/mL (≈ 0.0636 µM) | Cumulative percentage of isolates inhibited at MIC [3]: 75.0% and 100.0% | Number of test isolates at MIC ([4]; MIC 1 μg/mL): 1 | Cumulative percentage of isolates inhibited at MIC ([4]; MIC >32 μg/mL): 100.0% | Number of test isolates at MIC ([4]; MIC >32 μg/mL): 1 | time-kill kinetics outcome (bactericidal = ≥3 log reduction in CFU per mL) (B. vulgatus ATCC 8482): bactericidal against this organism at 8×MIC at 6 hr; and at 2 and 4×MIC at 6, 24 and 48 hr
